Measurements reported in publication PMC12670405, “Second-Generation AURKA-Targeting PROTACs: Structural Optimization toward in Vivo Degradation in Neuroblastoma” (Journal of Medicinal Chemistry, 2025).

Tests used:
Assay in all cases: KINOMEscan scanMAX
Type in all cases: binding
Settings in all cases: read-out: Percent Control
FRK = target: T1, FRK (Homo sapiens, UniProt P42685)
T1 construct: purchased Eurofins Discovery (DiscoverX KINOMEscan scanMAX)
Protocol: (§1) The kinome-wide binding assay was performed by Eurofins Discovery using the scanMAX screening platform. More information can be found on the Eurofins Discovery Web site.

ASK2 = target: T2, ASK2 (Homo sapiens, UniProt O95382)
T2 construct: purchased Eurofins Discovery (DiscoverX KINOMEscan scanMAX)
Protocol: as §1

PKNB(M.tuberculosis) = target: T3, PKNB(M.tuberculosis) (Mycobacterium tuberculosis, UniProt P9WI81)
T3 construct: purchased Eurofins Discovery (DiscoverX KINOMEscan scanMAX)
Protocol: as §1

ACVR2A = target: T4, ACVR2A (Homo sapiens, UniProt P27037)
T4 construct: purchased Eurofins Discovery (DiscoverX KINOMEscan scanMAX)
Protocol: as §1

ALK(C1156Y) = target: T5, ALK(C1156Y) (Homo sapiens, UniProt Q9UM73, C1156Y)
T5 construct: purchased Eurofins Discovery (DiscoverX KINOMEscan scanMAX)
Protocol: as §1

BRSK1 = target: T6, BRSK1 (Homo sapiens, UniProt Q8TDC3)
T6 construct: purchased Eurofins Discovery (DiscoverX KINOMEscan scanMAX)
Protocol: as §1

ERK1 = target: T7, ERK1 (Homo sapiens, UniProt P27361)
T7 construct: purchased Eurofins Discovery (DiscoverX KINOMEscan scanMAX)
Protocol: as §1

DYRK1B = target: T8, DYRK1B (Homo sapiens, UniProt Q9Y463)
T8 construct: purchased Eurofins Discovery (DiscoverX KINOMEscan scanMAX)
Protocol: as §1

CHEK1 = target: T9, CHEK1 (Homo sapiens, UniProt O14757)
T9 construct: purchased Eurofins Discovery (DiscoverX KINOMEscan scanMAX)
Protocol: as §1

HASPIN = target: T10, HASPIN (Homo sapiens, UniProt Q8TF76)
T10 construct: purchased Eurofins Discovery (DiscoverX KINOMEscan scanMAX)
Protocol: as §1

LYN = target: T11, LYN (Homo sapiens, UniProt P07948)
T11 construct: purchased Eurofins Discovery (DiscoverX KINOMEscan scanMAX)
Protocol: as §1

LTK = target: T12, LTK (Homo sapiens, UniProt P29376)
T12 construct: purchased Eurofins Discovery (DiscoverX KINOMEscan scanMAX)
Protocol: as §1

PKN2 = target: T13, PKN2 (Homo sapiens, UniProt Q16513)
T13 construct: purchased Eurofins Discovery (DiscoverX KINOMEscan scanMAX)
Protocol: as §1

TNNI3K = target: T14, TNNI3K (Homo sapiens, UniProt Q59H18)
T14 construct: purchased Eurofins Discovery (DiscoverX KINOMEscan scanMAX)
Protocol: as §1

TLK2 = target: T15, TLK2 (Homo sapiens, UniProt Q86UE8)
T15 construct: purchased Eurofins Discovery (DiscoverX KINOMEscan scanMAX)
Protocol: as §1

[1] = target: T16, ABL1(Q252H)-phosphorylated (Homo sapiens, UniProt P00519, Q252H)
T16 construct: purchased Eurofins Discovery (DiscoverX KINOMEscan scanMAX)
Protocol: as §1

EPHA7 = target: T17, EPHA7 (Homo sapiens, UniProt Q15375)
T17 construct: purchased Eurofins Discovery (DiscoverX KINOMEscan scanMAX)
Protocol: as §1

FLT3(K663Q) = target: T18, FLT3(K663Q) (Homo sapiens, UniProt P36888, K663Q)
T18 construct: purchased Eurofins Discovery (DiscoverX KINOMEscan scanMAX)
Protocol: as §1

ULK1 = target: T19, ULK1 (Homo sapiens, UniProt O75385)
T19 construct: purchased Eurofins Discovery (DiscoverX KINOMEscan scanMAX)
Protocol: as §1

TIE1 = target: T20, TIE1 (Homo sapiens, UniProt P35590)
T20 construct: purchased Eurofins Discovery (DiscoverX KINOMEscan scanMAX)
Protocol: as §1

YANK1 = target: T21, YANK1 (Homo sapiens, UniProt Q8WU08)
T21 construct: purchased Eurofins Discovery (DiscoverX KINOMEscan scanMAX)
Protocol: as §1

PIK3CA(E542K) = target: T22, PIK3CA(E542K) (Homo sapiens, UniProt P42336, E542K)
T22 construct: purchased Eurofins Discovery (DiscoverX KINOMEscan scanMAX)
Protocol: as §1

PLK3 = target: T23, PLK3 (Homo sapiens, UniProt Q9H4B4)
T23 construct: purchased Eurofins Discovery (DiscoverX KINOMEscan scanMAX)
Protocol: as §1

NIM1 = target: T24, NIM1 (Homo sapiens, UniProt Q8IY84)
T24 construct: purchased Eurofins Discovery (DiscoverX KINOMEscan scanMAX)
Protocol: as §1

MERTK = target: T25, MERTK (Homo sapiens, UniProt Q12866)
T25 construct: purchased Eurofins Discovery (DiscoverX KINOMEscan scanMAX)
Protocol: as §1

MRCKB = target: T26, MRCKB (Homo sapiens, UniProt Q9Y5S2)
T26 construct: purchased Eurofins Discovery (DiscoverX KINOMEscan scanMAX)
Protocol: as §1

RET = target: T27, RET (Homo sapiens, UniProt P07949)
T27 construct: purchased Eurofins Discovery (DiscoverX KINOMEscan scanMAX)
Protocol: as §1

LKB1 = target: T28, LKB1 (Homo sapiens, UniProt Q15831)
T28 construct: purchased Eurofins Discovery (DiscoverX KINOMEscan scanMAX)
Protocol: as §1

EGFR(L861Q) = target: T29, EGFR(L861Q) (Homo sapiens, UniProt P00533, L861Q)
T29 construct: purchased Eurofins Discovery (DiscoverX KINOMEscan scanMAX)
Protocol: as §1

MARK3 = target: T30, MARK3 (Homo sapiens, UniProt P27448)
T30 construct: purchased Eurofins Discovery (DiscoverX KINOMEscan scanMAX)
Protocol: as §1

ACVR1B = target: T31, ACVR1B (Homo sapiens, UniProt P36896)
T31 construct: purchased Eurofins Discovery (DiscoverX KINOMEscan scanMAX)
Protocol: as §1

ERK5 = target: T32, ERK5 (Homo sapiens, UniProt Q13164)
T32 construct: purchased Eurofins Discovery (DiscoverX KINOMEscan scanMAX)
Protocol: as §1

KIT(V559D,T670I) = target: T33, KIT(V559D,T670I) (Homo sapiens, UniProt P10721, T670I/V559D)
T33 construct: purchased Eurofins Discovery (DiscoverX KINOMEscan scanMAX)
Protocol: as §1

FGFR1 = target: T34, FGFR1 (Homo sapiens, UniProt P11362)
T34 construct: purchased Eurofins Discovery (DiscoverX KINOMEscan scanMAX)
Protocol: as §1

T25 sequence (Q12866 21-999): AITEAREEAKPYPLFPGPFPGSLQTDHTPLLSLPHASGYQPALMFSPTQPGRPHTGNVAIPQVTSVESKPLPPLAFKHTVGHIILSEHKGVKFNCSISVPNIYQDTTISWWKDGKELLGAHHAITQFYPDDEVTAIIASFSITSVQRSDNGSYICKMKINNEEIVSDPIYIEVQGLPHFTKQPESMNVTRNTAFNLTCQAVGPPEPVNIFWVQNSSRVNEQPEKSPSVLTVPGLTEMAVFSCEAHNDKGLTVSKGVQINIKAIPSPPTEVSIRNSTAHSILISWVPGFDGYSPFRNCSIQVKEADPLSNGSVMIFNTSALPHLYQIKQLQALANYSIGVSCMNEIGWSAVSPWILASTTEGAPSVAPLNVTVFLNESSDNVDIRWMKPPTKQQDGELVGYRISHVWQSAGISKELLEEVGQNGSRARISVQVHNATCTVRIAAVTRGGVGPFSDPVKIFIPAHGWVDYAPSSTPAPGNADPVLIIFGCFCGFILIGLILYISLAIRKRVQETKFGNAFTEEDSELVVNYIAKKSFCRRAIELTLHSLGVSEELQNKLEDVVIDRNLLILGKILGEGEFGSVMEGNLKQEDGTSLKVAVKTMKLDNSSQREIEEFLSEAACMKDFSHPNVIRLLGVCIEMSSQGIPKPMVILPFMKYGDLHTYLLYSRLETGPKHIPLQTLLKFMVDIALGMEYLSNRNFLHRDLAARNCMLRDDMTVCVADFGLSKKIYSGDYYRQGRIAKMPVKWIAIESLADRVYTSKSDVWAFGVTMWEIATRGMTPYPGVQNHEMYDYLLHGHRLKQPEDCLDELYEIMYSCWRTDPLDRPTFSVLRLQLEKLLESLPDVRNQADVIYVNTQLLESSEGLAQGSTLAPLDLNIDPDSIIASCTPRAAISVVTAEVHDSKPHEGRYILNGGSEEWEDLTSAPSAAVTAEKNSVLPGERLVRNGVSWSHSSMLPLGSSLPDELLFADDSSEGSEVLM
T27 sequence (P07949 29-1114): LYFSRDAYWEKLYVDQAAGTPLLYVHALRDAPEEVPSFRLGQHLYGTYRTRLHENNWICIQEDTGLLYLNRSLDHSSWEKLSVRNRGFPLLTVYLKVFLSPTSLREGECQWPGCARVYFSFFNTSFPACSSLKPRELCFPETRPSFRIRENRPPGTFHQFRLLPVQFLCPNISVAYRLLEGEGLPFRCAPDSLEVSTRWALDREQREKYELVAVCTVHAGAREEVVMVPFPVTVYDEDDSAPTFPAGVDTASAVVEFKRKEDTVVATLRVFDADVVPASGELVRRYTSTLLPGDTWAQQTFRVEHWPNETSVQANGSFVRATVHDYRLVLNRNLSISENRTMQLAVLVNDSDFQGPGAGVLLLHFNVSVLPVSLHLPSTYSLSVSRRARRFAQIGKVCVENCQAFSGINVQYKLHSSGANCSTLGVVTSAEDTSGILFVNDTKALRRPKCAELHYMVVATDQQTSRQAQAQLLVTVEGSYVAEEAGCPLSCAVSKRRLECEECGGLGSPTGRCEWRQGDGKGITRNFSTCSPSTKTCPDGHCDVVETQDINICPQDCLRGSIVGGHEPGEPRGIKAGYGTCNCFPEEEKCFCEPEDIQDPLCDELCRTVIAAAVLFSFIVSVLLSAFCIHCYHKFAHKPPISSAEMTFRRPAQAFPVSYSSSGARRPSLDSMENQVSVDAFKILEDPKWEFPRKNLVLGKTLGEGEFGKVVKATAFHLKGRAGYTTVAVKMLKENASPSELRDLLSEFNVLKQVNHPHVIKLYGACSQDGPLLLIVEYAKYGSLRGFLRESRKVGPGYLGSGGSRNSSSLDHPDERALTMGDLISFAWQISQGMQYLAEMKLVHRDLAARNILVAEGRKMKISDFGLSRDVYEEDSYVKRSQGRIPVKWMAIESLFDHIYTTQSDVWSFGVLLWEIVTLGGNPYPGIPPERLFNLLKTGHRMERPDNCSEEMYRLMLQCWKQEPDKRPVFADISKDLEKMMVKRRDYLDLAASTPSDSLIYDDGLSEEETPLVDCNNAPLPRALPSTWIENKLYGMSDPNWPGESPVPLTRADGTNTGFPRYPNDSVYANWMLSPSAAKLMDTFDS
T10 sequence (Q8TF76 whole entry): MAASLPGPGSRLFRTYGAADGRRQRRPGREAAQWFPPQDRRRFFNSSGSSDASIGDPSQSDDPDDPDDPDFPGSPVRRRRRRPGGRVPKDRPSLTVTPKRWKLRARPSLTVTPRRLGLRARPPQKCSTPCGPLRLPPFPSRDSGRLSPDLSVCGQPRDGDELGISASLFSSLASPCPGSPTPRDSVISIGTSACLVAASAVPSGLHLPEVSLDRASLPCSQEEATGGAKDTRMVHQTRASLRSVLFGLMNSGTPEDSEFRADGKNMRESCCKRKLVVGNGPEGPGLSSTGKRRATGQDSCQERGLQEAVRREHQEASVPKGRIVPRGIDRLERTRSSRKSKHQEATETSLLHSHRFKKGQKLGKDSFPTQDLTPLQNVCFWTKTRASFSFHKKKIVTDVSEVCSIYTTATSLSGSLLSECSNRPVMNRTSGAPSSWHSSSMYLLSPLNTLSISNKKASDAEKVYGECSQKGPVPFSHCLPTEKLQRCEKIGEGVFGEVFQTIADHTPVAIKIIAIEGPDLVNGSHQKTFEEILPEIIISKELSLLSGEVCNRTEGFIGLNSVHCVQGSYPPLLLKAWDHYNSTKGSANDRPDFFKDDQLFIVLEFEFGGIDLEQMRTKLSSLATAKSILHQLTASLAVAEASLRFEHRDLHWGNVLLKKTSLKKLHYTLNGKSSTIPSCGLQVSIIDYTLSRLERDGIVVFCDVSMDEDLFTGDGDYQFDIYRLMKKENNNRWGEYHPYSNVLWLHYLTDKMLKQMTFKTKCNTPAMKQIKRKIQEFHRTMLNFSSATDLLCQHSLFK
T23 sequence (Q9H4B4 whole entry): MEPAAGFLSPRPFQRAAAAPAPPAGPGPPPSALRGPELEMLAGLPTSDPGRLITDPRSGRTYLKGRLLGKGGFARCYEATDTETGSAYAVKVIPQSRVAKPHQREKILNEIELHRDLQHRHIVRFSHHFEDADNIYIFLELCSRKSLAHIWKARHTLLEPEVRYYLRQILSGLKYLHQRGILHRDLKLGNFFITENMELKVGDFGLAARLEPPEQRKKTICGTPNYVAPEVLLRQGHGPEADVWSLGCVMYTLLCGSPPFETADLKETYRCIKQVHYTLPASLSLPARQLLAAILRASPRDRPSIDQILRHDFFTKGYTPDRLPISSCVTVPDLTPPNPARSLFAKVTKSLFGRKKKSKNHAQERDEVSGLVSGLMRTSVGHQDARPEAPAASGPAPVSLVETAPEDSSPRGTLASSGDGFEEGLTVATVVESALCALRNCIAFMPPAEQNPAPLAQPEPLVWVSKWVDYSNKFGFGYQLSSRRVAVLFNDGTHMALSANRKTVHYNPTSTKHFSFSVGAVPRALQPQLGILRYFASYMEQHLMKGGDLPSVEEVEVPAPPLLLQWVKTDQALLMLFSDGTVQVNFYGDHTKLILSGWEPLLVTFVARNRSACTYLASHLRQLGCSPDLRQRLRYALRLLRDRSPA
T14 sequence (Q59H18 whole entry): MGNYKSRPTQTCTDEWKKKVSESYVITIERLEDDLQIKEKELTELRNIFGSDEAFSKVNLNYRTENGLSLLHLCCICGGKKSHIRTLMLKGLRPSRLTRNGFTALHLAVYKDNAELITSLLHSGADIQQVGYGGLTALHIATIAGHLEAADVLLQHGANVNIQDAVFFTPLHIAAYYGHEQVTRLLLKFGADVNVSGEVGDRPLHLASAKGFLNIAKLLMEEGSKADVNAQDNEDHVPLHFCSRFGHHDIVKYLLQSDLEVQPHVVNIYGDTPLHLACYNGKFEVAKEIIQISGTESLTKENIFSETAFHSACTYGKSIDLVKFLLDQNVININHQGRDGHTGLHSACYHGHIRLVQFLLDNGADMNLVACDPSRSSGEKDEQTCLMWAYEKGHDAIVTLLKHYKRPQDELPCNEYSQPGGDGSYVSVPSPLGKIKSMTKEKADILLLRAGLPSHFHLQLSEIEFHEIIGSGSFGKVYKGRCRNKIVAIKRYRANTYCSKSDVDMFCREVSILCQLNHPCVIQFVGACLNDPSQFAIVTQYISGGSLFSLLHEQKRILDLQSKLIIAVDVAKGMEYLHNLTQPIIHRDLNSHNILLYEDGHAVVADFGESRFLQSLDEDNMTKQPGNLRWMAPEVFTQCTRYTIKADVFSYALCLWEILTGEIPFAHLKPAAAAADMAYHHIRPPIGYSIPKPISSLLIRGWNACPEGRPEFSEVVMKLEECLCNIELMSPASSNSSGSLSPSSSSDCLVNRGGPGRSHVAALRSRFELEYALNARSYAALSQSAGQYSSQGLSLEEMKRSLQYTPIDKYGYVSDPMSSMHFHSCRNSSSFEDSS
T28 sequence (Q15831 whole entry): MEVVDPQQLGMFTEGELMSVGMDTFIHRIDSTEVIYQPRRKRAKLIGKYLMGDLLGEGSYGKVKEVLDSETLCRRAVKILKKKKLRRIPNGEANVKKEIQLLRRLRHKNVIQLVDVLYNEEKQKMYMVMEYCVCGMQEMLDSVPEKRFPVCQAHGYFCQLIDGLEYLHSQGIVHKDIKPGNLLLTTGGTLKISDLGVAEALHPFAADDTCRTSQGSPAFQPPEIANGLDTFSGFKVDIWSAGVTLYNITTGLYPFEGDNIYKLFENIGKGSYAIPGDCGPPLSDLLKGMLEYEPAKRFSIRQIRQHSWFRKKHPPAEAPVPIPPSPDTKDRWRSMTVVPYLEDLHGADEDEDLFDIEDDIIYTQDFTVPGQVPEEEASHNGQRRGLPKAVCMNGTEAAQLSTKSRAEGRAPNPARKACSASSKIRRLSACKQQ

`Cc1cc(Nc2ccc(F)c(CC3(C(=O)N4CCC(F)(CN5CCN(c6ccc(N7CCC(=O)NC7=O)cn6)CC5)CC4)CCN(Cc4cccc(Cl)c4F)CC3)n2)n[nH]1` [SK5527] was tested, and the remaining binding at 0.1 µM (FRK; 100 nM) was 100%, the remaining binding at 1 µM (FRK; 1000 nM) was 96% and the remaining binding at 0.1 µM (ASK2; 100 nM) was 62%. The remaining binding at 1 µM (ASK2; 1000 nM) was 56%, the remaining binding at 0.1 µM (PKNB(M.tuberculosis); 100 nM) was 93% and the remaining binding at 1 µM (PKNB(M.tuberculosis); 1000 nM) was 94%. For the same compound, the remaining binding at 0.1 µM (ACVR2A; 100 nM) was 100%, the remaining binding at 1 µM (ACVR2A; 1000 nM) was 98% and the remaining binding at 0.1 µM (ALK(C1156Y); 100 nM) was 87%. The remaining binding at 1 µM (ALK(C1156Y); 1000 nM) was 100%, the remaining binding at 0.1 µM (BRSK1; 100 nM) was 100% and the remaining binding at 1 µM (BRSK1; 1000 nM) was 98%. It also gave a remaining binding at 0.1 µM (ERK1; 100 nM) of 94%, a remaining binding at 1 µM (ERK1; 1000 nM) of 94% and a remaining binding at 0.1 µM (DYRK1B; 100 nM) of 98%. The remaining binding at 1 µM (DYRK1B; 1000 nM) was 74%, the remaining binding at 0.1 µM (CHEK1; 100 nM) was 100% and the remaining binding at 1 µM (CHEK1; 1000 nM) was 100%. The remaining binding at 0.1 µM (HASPIN; 100 nM) was 79%, the remaining binding at 1 µM (HASPIN; 1000 nM) was 70% and the remaining binding at 0.1 µM (LYN; 100 nM) was 78%. The remaining binding at 1 µM (LYN; 1000 nM) was 94%, the remaining binding at 0.1 µM (LTK; 100 nM) was 100% and the remaining binding at 1 µM (LTK; 1000 nM) was 100%. For the same compound, the remaining binding at 0.1 µM (PKN2; 100 nM) was 81%, the remaining binding at 1 µM (PKN2; 1000 nM) was 81% and the remaining binding at 0.1 µM (TNNI3K; 100 nM) was 73%. It also gave a remaining binding at 1 µM (TNNI3K; 1000 nM) of 70%, a remaining binding at 0.1 µM (TLK2; 100 nM) of 100% and a remaining binding at 1 µM (TLK2; 1000 nM) of 94%. The remaining binding at 0.1 µM ([1]; 100 nM) was 68%, the remaining binding at 1 µM ([1]; 1000 nM) was 44% and the remaining binding at 0.1 µM (EPHA7; 100 nM) was 100%. The remaining binding at 1 µM (EPHA7; 1000 nM) was 82%, the remaining binding at 0.1 µM (FLT3(K663Q); 100 nM) was 81% and the remaining binding at 1 µM (FLT3(K663Q); 1000 nM) was 79%. The remaining binding at 0.1 µM (ULK1; 100 nM) was 92%, the remaining binding at 1 µM (ULK1; 1000 nM) was 91% and the remaining binding at 0.1 µM (TIE1; 100 nM) was 89%. It also gave a remaining binding at 1 µM (TIE1; 1000 nM) of 68%, a remaining binding at 0.1 µM (YANK1; 100 nM) of 100% and a remaining binding at 1 µM (YANK1; 1000 nM) of 77%. The remaining binding at 0.1 µM (PIK3CA(E542K); 100 nM) was 81%, the remaining binding at 1 µM (PIK3CA(E542K); 1000 nM) was 68% and the remaining binding at 0.1 µM (PLK3; 100 nM) was 100%. It also gave a remaining binding at 1 µM (PLK3; 1000 nM) of 86%, a remaining binding at 0.1 µM (NIM1; 100 nM) of 58% and a remaining binding at 1 µM (NIM1; 1000 nM) of 76%. For the same compound, the remaining binding at 0.1 µM (MERTK; 100 nM) was 90%, the remaining binding at 1 µM (MERTK; 1000 nM) was 54% and the remaining binding at 0.1 µM (MRCKB; 100 nM) was 98%. It also gave a remaining binding at 1 µM (MRCKB; 1000 nM) of 93%, a remaining binding at 0.1 µM (RET; 100 nM) of 88% and a remaining binding at 1 µM (RET; 1000 nM) of 39%. For the same compound, the remaining binding at 0.1 µM (LKB1; 100 nM) was 82%, the remaining binding at 1 µM (LKB1; 1000 nM) was 83% and the remaining binding at 0.1 µM (EGFR(L861Q); 100 nM) was 95%. It also gave a remaining binding at 1 µM (EGFR(L861Q); 1000 nM) of 100%, a remaining binding at 0.1 µM (MARK3; 100 nM) of 100% and a remaining binding at 1 µM (MARK3; 1000 nM) of 87%. It also gave a remaining binding at 0.1 µM (ACVR1B; 100 nM) of 100%, a remaining binding at 1 µM (ACVR1B; 1000 nM) of 100% and a remaining binding at 0.1 µM (ERK5; 100 nM) of 100%. For the same compound, the remaining binding at 1 µM (ERK5; 1000 nM) was 93%, the remaining binding at 0.1 µM (KIT(V559D,T670I); 100 nM) was 100% and the remaining binding at 1 µM (KIT(V559D,T670I); 1000 nM) was 89%. For the same compound, the remaining binding at 0.1 µM (FGFR1; 100 nM) was 100% and the remaining binding at 1 µM (FGFR1; 1000 nM) was 92%.
